We go through one compound from patent US20120058133A1, “INHIBITION OF TRNA SYNTHETASES AND THERAPEUTIC APPLICATIONS THEREOF” (President and Fellows of Harvard College, priority 2009, published 2012).

“Also recorded” adds a separate entry of the source.

For experiment [1], the system named is passive EAE in RAG2-deficient mice. Briefly: Passive EAE (transfer of PLP-reactive T cells). The class given is in vivo, mouse. The note with it: 2 μg HF daily i.p. The text has this:
The ability of systemic HF treatment to block IL-17 expression and associated autoimmune inflammation in vivo was examined using two distinct models of experimental autoimmune encephalomyelitis (EAE). […] The second model, a passive model of EAE induction, is initiated by the transfer of myelin proteolipid protein (PLP)-reactive T cells into lymphopenic hosts.
Passive EAE was induced by intravenous transfer of purified CD3^+ splenic T cells isolated from PLP TCR transgenic B10.S mice into syngeneic RAG2-deficient mice (3×10^6 cells/mouse) (Waldner et al., J. Clin. Invest. 113(7):990-997, 2004).
Mice were injected daily with HF (2 μg/mouse) or vehicle control (DMSO) i.p. Clinical signs of EAE were assessed according to the following score: 0, no signs of disease; 1, flaccid tail; 2, weak gait/hind limb paresis; 3, hind limb paralysis; 4, tetraplegia; 5, moribund. Cytokine production during EAE was determined either in peripheral T cells isolated from spleen or lymph nodes of mice prior to disease onset (day 6-10) or in mononuclear cells isolated from the brain and spinal cords of mice with severe disease (clinical score ≧2) between days 15-20. Briefly, splenocytes were stained for intracellular cytokines following erythrocyte lysis with ammonium chloride buffer. T cells were isolated from brain and spinal cords of mice with active EAE following perfusion with cold PBS. […]

In experiment [2] the test system is STAT3 phosphorylation. Briefly: STAT3 phosphorylation in developing Th17 cells. The experiment is classed as cell-based, mouse. On the procedure: FIG. 3. […] FIG. 3A is a set of representative histograms displaying the kinetics of STAT3 phosphorylation in developing Th17 cells treated with or without HF. Resting naïve T cells (grey, shaded peak), T cells activated in the presence of TGFβ plus IL-6 (TGFβ/IL-6) treated with 10 nM MAZ1310 (light gray trace), 5 nM HF (medium gray trace), or 10 nM HF (dark gray trace). T cells were fixed at the indicated times and intracellular phospho-STAT3 staining was performed.
FIG. 3B depicts western blot analysis of CD4^+ CD25^− T cells treated with 10 nM HF or 10 nM MAZ1310 and activated in the presence or absence of TGFβ plus IL-6. Whole cell lysates were generated at the indicated times following activation.
All cell surface staining was performed in FACS buffer (PBS/2% FBS/0.1% NaN3) and antibodies were incubated with cells on ice for 20-30 minutes. Cells were washed with FACS buffer and fixed with FACS buffer plus 1% paraformaldehyde prior to data acquisition. For phospho-STAT3 intracellular staining, stimulated T cells cultured with or without TGFβ plus IL-6 for the indicated times were harvested on ice and fixed in PBS plus 2% paraformaldehyde for 10 minutes at 37° C. Fixed cells were washed twice with staining buffer (PBS/1% BSA/0.1% NaN3) and then permeabilized with perm buffer III (BD Pharmingen) on ice for 30 minutes. Cells were then washed twice with staining buffer and PE-conjugated anti-STAT3 (pY705) (BD Pharmingen) was added per the manufacturer's instructions and incubated with cells at room temperature for 45-60 minutes. Cells were then washed and stored in staining buffer prior to data acquisition. Foxp3 intracellular staining was performed using a Foxp3 intracellular staining kit (eBioscience—San Diego, Calif.) in accordance with the manufacturer's instructions. […] All FACS data was acquired on a FACSCalibur flow cytometer (BD Pharmingen) and analyzed using FlowJo software (Treestar, Inc.—Ashland, Oreg.). […]

The subject of experiment [3] is murine CD4+ CD25− T cells, CD8+ T cells, B cells. The note with it: high concentrations; PCT/US08/09774; cited from earlier work.
Experiment [4] has as its system luciferase. Briefly: Standard luciferase assay. The experiment is classed as biochemical. The note with it: not shown.
The subject of experiment [5] is TGFβ signaling. Particulars: literature reports; cited from earlier work.

As to `O=C(CC1NCCCC1O)Cn1cnc2cc(Br)c(Cl)cc2c1=O` (racemic) [HF, halofuginone], in experiment [1], the “disease in passive EAE model” value was “kinetics and severity similar to control treated animals; also recorded: had no effect on an independent, passive model of EAE”. Besides, the “time post activation at which STAT3 phosphorylation begins to decrease” value in experiment [2] was “around 12 hours”. In addition, in experiment [2] (5-10 nM HF), the “STAT3 activation during the first 6 hours of Th17 differentiation” value is recorded as “did not interfere with STAT3 activation” and the “maintenance of STAT3 phosphorylation” value is listed as “decreased the maintenance of STAT3 phosphorylation”. For the same compound, in experiment [3], the “concentrations generally inhibiting CD4+ T cell, CD8+ T cell, and B220+ B cell activation” value was 20 to 40 nM. For the same compound, the “direct effect on luciferase activity” value in experiment [4] is on record as “no direct effect”. In addition, the “concentration at which HF can attenuate TGFβ signaling” value in experiment [5] was over 50 nM.
